From PubChem BioAssay (NCI)
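Compound exposure: 48 hours, 5 concentrations, 96-well plates. At the GI50, growth is halved. TGI marks complete inhibition of growth.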 Where a SMILES comes first, the peptide text is derived from it. Bridges are numbered along the chain shown (N, C = ends).

Key:
Experiment in all cases: NCI-60 cell line screen, 48 h
TK-10 renal = tested on: TK-10 renal
MALME-3M melanoma = tested on: MALME-3M melanoma
UO-31 renal = tested on: UO-31 renal
K-562 leukemia = tested on: K-562 leukemia
A498 renal = tested on: A498 renal
NCI-H460 lung = tested on: NCI-H460 lung
HCT-116 colon = tested on: HCT-116 colon
HOP-62 NSCLC = tested on: HOP-62 NSCLC
PC-3 prostate = tested on: PC-3 prostate
MDA-MB-231 breast = tested on: MDA-MB-231 breast

With `CCc1cc2c(Nc3ccccc3)c3c(nc2s1)CCCC3` the TGI (TK-10 renal) was greater than 100 µM, the TGI (MALME-3M melanoma) was greater than 100 µM and the TGI (UO-31 renal) was greater than 100 µM. The TGI (K-562 leukemia) was greater than 100 µM, the TGI (A498 renal) was greater than 100 µM and the TGI (NCI-H460 lung) was greater than 100 µM. The TGI (HCT-116 colon) was greater than 100 µM and the TGI (HOP-62 NSCLC) was greater than 100 µM.

With `COc1ccc(C(=O)Nc2ccn(CCOC(=O)c3ccc(OC)cc3)c(=O)n2)cc1` the TGI (TK-10 renal) was greater than 100 µM, the TGI (MALME-3M melanoma) was greater than 100 µM and the TGI (UO-31 renal) was greater than 100 µM. For the same molecule, the TGI (K-562 leukemia) was greater than 100 µM, the TGI (A498 renal) was greater than 100 µM and the TGI (NCI-H460 lung) was greater than 100 µM. It also gave a TGI (HCT-116 colon) greater than 100 µM and a TGI (HOP-62 NSCLC) greater than 100 µM.

For `CCC(C)C1NC(=O)C(CC(C)C)NC(=O)C(C(C)C)NC(=O)C2CSSCC(NC1=O)C(=O)N2` (stereo not drawn) (cyclo(CCVLI); disulfide 1-2; configuration not given here), the TGI (TK-10 renal) was 1.93 µM, the TGI (UO-31 renal) was 5.84 µM and the TGI (NCI-H460 lung) was 0.26 µM. The TGI (PC-3 prostate) was 0.329 µM, the TGI (HCT-116 colon) was 0.187 µM and the TGI (MDA-MB-231 breast) was 0.233 µM. The TGI (HOP-62 NSCLC) was 0.554 µM.

`CC(=O)OC(C)(C)C[N+](=O)[O-]` showed a TGI (TK-10 renal) greater than 100 µM, a TGI (MALME-3M melanoma) greater than 100 µM and a TGI (UO-31 renal) greater than 100 µM. The TGI (K-562 leukemia) was greater than 100 µM, the TGI (NCI-H460 lung) was greater than 100 µM and the TGI (HCT-116 colon) was greater than 100 µM. For the same molecule, the TGI (HOP-62 NSCLC) was greater than 100 µM.

`Cc1cc(C(=O)CC(Cl)=C(Cl)Cl)c(Cl)cc1Cl` gave a GI50 (TK-10 renal) of 15.9 µM, a TGI (TK-10 renal) of 32 µM and a GI50 (MALME-3M melanoma) of 14.3 µM. For the same molecule, the TGI (MALME-3M melanoma) was 34.5 µM, the GI50 (UO-31 renal) was 22.5 µM and the TGI (UO-31 renal) was 55.4 µM. For the same molecule, the GI50 (K-562 leukemia) was 20.7 µM, the TGI (K-562 leukemia) was 47.6 µM and the GI50 (A498 renal) was 18.2 µM. For the same molecule, the TGI (A498 renal) was 51.5 µM, the GI50 (NCI-H460 lung) was 23.8 µM and the TGI (NCI-H460 lung) was 90.6 µM. It also gave a GI50 (HCT-116 colon) of 19.1 µM, a TGI (HCT-116 colon) of 33.2 µM and a GI50 (MDA-MB-231 breast) of 23.4 µM. For the same molecule, the TGI (MDA-MB-231 breast) was 46.2 µM, the GI50 (HOP-62 NSCLC) was 21.2 µM and the TGI (HOP-62 NSCLC) was 44.1 µM.

With `CC(O)(c1ccc(OCCC[N+](C)(C)C)cc1)C(C)(O)c1ccc(OCCC[N+](C)(C)C)cc1` (stereo not drawn) the TGI (MALME-3M melanoma) was greater than 100 µM, the TGI (UO-31 renal) was greater than 100 µM and the TGI (K-562 leukemia) was greater than 100 µM. It also gave a TGI (A498 renal) greater than 100 µM, a TGI (NCI-H460 lung) greater than 100 µM and a TGI (HCT-116 colon) greater than 100 µM. The TGI (HOP-62 NSCLC) was greater than 100 µM.

`CC[C@@]1(O)C(=O)OCc2c1cc1n(c2=O)Cc2cc3cccc(N)c3nc2-1` showed a GI50 (TK-10 renal) greater than 100 µM, a TGI (TK-10 renal) greater than 100 µM and a GI50 (MALME-3M melanoma) of 84.5 µM. For the same molecule, the TGI (MALME-3M melanoma) was greater than 100 µM, the GI50 (UO-31 renal) was 8.44 µM and the TGI (UO-31 renal) was greater than 100 µM. It also gave a GI50 (K-562 leukemia) greater than 100 µM, a TGI (K-562 leukemia) greater than 100 µM and a GI50 (A498 renal) of 7.17 µM. It also gave a TGI (A498 renal) of 60.3 µM, a GI50 (NCI-H460 lung) of 1.38 µM and a TGI (NCI-H460 lung) of 11.2 µM. The GI50 (HCT-116 colon) was 16.8 µM, the TGI (HCT-116 colon) was greater than 100 µM and the GI50 (HOP-62 NSCLC) was 2.36 µM. For the same molecule, the TGI (HOP-62 NSCLC) was 6.24 µM.

`COC(=O)/C=C(C)/C=C/c1c(C)c(C(C)=O)c(C)n1C` showed a TGI (TK-10 renal) greater than 100 µM, a TGI (MALME-3M melanoma) greater than 100 µM and a TGI (UO-31 renal) greater than 100 µM. For the same molecule, the TGI (K-562 leukemia) was greater than 100 µM, the TGI (A498 renal) was greater than 100 µM and the TGI (HCT-116 colon) was greater than 100 µM. For the same molecule, the TGI (HOP-62 NSCLC) was greater than 100 µM.
